Source: patent US20250339409A1, “USES OF PAN BET INHIBITORS” (VYNE THERAPEUTICS INC., priority 2021, published 2025)
Converted amounts (≈) assume the structure as drawn. “And” between values parts separate entries of the source, which are not always exact repeats. Identical values can stand only once. Like-named read-outs stand apart in the source and are kept apart here.

Legend:
[1] = Solubility of BETi1 in solutions of hydroxypropyl-β-cyclodextrin in saline (HPLC); assay type: physicochemical; settings: for solubility: aqueous with cosolvent or surfactant or cyclodextrin, thermodynamic from solid, 25° C., HPLC, read-out: Approximate solubility
Method: Saline is prepared by dissolving 0.9% of NaCl in water. 10% w/w or 20% w/w of hydroxypropyl-β-cyclodextrin (2HP-β-CD) is added to saline, sonicated for 1 minute, and mixed using magnetic stirrer until complete dissolution of 2HP-β-CD and a clear solution is obtained. Sufficient BETi1 is added to each 2HP-β-CD solution such that not all BETi1 is completely dissolved. The mixture is stirred with a magnetic stirrer at ambient conditions overnight (for at least 16 hours). The saturated samples, still containing solid phase, are filtered through a 0.45 μm filter and the filtrate is analyzed by HPLC.

[2] = Solubility of BETi1 in water (HPLC) and in solvents (visual observation); assay type: physicochemical; settings: sample of 0.04 mg/g (0.004%) in NaCMC/saline
[3] = Toxicokinetics in dogs after intra-articular injection: synovial fluid concentrations; assay type: in vivo, Beagle dogs; parameters: Synovial concentration of BETi1: unit not given here; settings: for AUC(0-t) / Cmax / Tmax / concentration at 4 weeks: Beagle, dog, synovial fluid; for AUC(0-t): read-out: Synovia AUC0-672 h; for concentration at 4 weeks: other: intra-articular injection, read-out: synovial level at four weeks post-treatment
Method: 16 Beagle dogs (8 males, 8 females) were assigned to four treatment groups to determine toxicity of BETi1 formulations following intra-articular injection.
The experimental groups are presented below: • Group 1: Control; 0 mg of BETi1/animal dose • Group 2: Low Dose; 7.5 mg of BETi1/animal dose • Group 3: Mid Dose; 75 mg of BETi1/animal dose • Group 4: High Dose; 150 mg of BETi1/animal dose
The control and BETi1 dose formulations were comprised as follows: Control: Vehicle (0.5% sodium carboxymethylcellulose; 0.1% polysorbate 80 in saline) • Low Dose: 0.75% w/w BETi1 suspended in Vehicle • Mid Dose: 7.5% w/w BETi1 suspended in Vehicle • High Dose: 15% w/w BETi1 suspended in Vehicle
Study dogs were administered control treatment or treatment with a BETi1 formulation via intra-articular injection only to their right knee joints. Dosage volume was 1 mL/knee.
Approximately 80 μL of synovial fluid was collected from animals from the right knee joint and placed into appropriately labeled tubes onto wet ice. Synovia was then transferred into labeled clear polypropylene tubes and frozen in the upright position over dry ice and stored in a freezer set to maintain <−60° C. until shipped on dry ice for analysis.
Quantification of BETi1 concentrations in plasma and synovial fluid was performed using a qualified liquid chromatographic triple quadrupole mass spectrometric (LC-MS/MS) method. Synovial fluids were centrifuged before analysis.
Toxicokinetic (TK) analysis of BETi1 plasma concentration-time and synovial fluid concentration-time data was performed. TK parameter values including maximum plasma/synovial fluid concentrations (Cmax), time to reach maximum concentrations (Tmax), and area under the plasma/synovial fluid concentrations vs. time curve (AUC) from time zero to 672-hour (AUC0-672h) was determined. Values that were below the lower limit of quantification (BLQ) were set to zero in the calculation of mean concentrations. When more than half of individual values at a single time point were BLQ, mean values were reported as BLQ.

[4] = system: anti collagen antibodies induced arthritis (ACAIA); assay: ACAIA mice: histopathology of hind paws (tarsus); assay type: in vivo, Balb/c mice; parameters: key to Histology: Score / Histology: Score, MEAN: 0 = within normal limits, 1 minimal, 2 mild, 3 moderate, 4 severe; settings: for Histology: Score, MEAN: group mean; for Histology: Bones / Histology: Cartilage / Histology: Joint space / Histology: Score / Histology: Soft tissue: individual animals;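 as to all read-outs here: Mid-sagittal H&E-stained sections of mouse tarsus taken at study end, lesion severity graded from 0 (normal) to 4 (severe)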
Excerpt: At the end of the study, the mice are euthanized using pentobarbital sodium injection. Once euthanized, one hind paw of each animal is harvested and collected into vials containing 4% formalin for histology analysis.
The samples are sagittal sections of the right and left murine tarsus. The histology scoring is based on the severity of the lesions, taking into account both the number of infiltrating cells and the extent of cartilage and bone damage. To be classified as severe, a lesion has to show bone and cartilage damage (beyond degeneration for the latter). The scores are 0=within normal limits, 1-minimal, 2-mild, 3-moderate, 4-severe.
Statistics and data evaluation are primarily based on the mean values for body weight, arthritis clinical scoring and paw thickness measurements. Where appropriate, analysis of the data by one-way ANOVA followed by Dunnett's post-test is applied to determine the significance of treatment effects. All data for the histopathological analysis is presented as Mean±SEM. The treatment groups are compared to the Vehicle group (Group 1) or the contralateral hind paw using the Student's T-test. A p-value <0.05 is considered to represent a significant difference.
Histopathological analysis was conducted in accordance with Method B. Tissues from groups 1, 2, 3 and 7 were processed. Following decalcification, the tissues were cut mid-sagitally and were processed and sectioned for H & E staining. The histopathological analysis included an examination of the number of infiltrating cells and the extent of cartilage and bone damage.

[5] = 1 mg/kg IA (Group 3), L paw (injected)
[6] = 1 mg/kg IA (Group 3), R paw (contralateral)
[7] = 10 mg/kg IA (Group 2), Mean±SEM
[8] = 10 mg/kg IA (Group 2), L paw (injected)
[9] = 10 mg/kg IA (Group 2), R paw (contralateral)
[10] = 1 mg/kg IA (Group 7), L paw (injected)
[11] = 1 mg/kg IA (Group 7), R paw (contralateral)

In the case of `Cn1cc(-c2cccc(O)c2Oc2ccccc2)c2cc[nH]c2c1=O` [BETi1], the “amount of BETi1 fully dissolved” value ([1]; 10% HP-b-CD in saline, room temperature) is reported as “below 4.3 mg/mL”, the solubility ([1]; 10% w/w hydroxypropyl-β-cyclodextrin in saline, 2HP-β-CD - Saline (10%:90%)) is reported as 4.34 mg/mL (≈ 13.1 mM) and the solubility ([1]; 20% w/w hydroxypropyl-β-cyclodextrin in saline, 2HP-β-CD - Saline (20%:80%)) is reported as 8.99 mg/mL (≈ 27 mM). For the same compound, the “fraction of API in undissolved form” value [2] was “approximately 90%”, the “Synovial concentration of BETi1” value ([3]; 7.5 mg intra-articular, 72 h (day 3)) was 125.625 and the “Synovial concentration of BETi1” value ([3]; 7.5 mg intra-articular, 336 h (day 14)) was 0. The “Synovial concentration of BETi1” value ([3]; 7.5 mg intra-articular, 504 h (day 21)) was 0, the “Synovial concentration of BETi1” value ([3]; 7.5 mg intra-articular, 672 h (day 28), in ng/mL) was 0.685 and the “Synovial concentration of BETi1” value ([3]; 7.5 mg intra-articular, […] (day 7)) was 1.58. The “Synovial concentration of BETi1” value ([3]; 75 mg intra-articular, 72 h (day 3)) was 27050, the “Synovial concentration of BETi1” value ([3]; 75 mg intra-articular, 336 h (day 14)) was 6805 and the “Synovial concentration of BETi1” value ([3]; 75 mg intra-articular, 504 h (day 21)) was 937. For the same compound, the “Synovial concentration of BETi1” value ([3]; 75 mg intra-articular, 672 h (day 28)) was 316, the “Synovial concentration of BETi1” value ([3]; 75 mg intra-articular, […] (day 7)) was 33700 and the “Synovial concentration of BETi1” value ([3]; 150 mg intra-articular, 72 h (day 3)) was 47600. The “Synovial concentration of BETi1” value ([3]; 150 mg intra-articular, 336 h (day 14)) was 18070, the “Synovial concentration of BETi1” value ([3]; 150 mg intra-articular, 504 h (day 21)) was 7765 and the “Synovial concentration of BETi1” value ([3]; 150 mg intra-articular, 672 h (day 28)) was 4375. The “Synovial concentration of BETi1” value ([3]; 150 mg intra-articular, […] (day 7)) was 36000, the AUC(0-t) ([3]; 7.5 mg/animal, Male, Study Day 1) was 25.4 µg·h/mL and the Cmax ([3]; 7.5 mg/animal, Male, Study Day 1, read-out: Synovia Cmax) was 0.244 µg/mL. It also gave a Tmax ([3]; 7.5 mg/animal, Male, Study Day 1, read-out: Synovia Tmax) of 120 h, an AUC(0-t) ([3]; 75 mg/animal, Female, Study Day 1) of 6090 µg·h/mL and a Cmax ([3]; 75 mg/animal, Female, Study Day 1, read-out: Synovia Cmax) of 43.7 µg/mL. It also gave a Tmax ([3]; 75 mg/animal, Female, Study Day 1, read-out: Synovia Tmax) of 120 h, an AUC(0-t) ([3]; 75 mg/animal, Male, Study Day 1) of 7890 µg·h/mL and a Cmax ([3]; 75 mg/animal, Male, Study Day 1, read-out: Synovia Cmax) of 47.6 µg/mL. It also gave a Tmax ([3]; 75 mg/animal, Male, Study Day 1, read-out: Synovia Tmax) of 120 h, an AUC(0-t) ([3]; 150 mg/animal, Female, Study Day 1) of 11300 µg·h/mL and a Cmax ([3]; 150 mg/animal, Female, Study Day 1, read-out: Synovia Cmax) of 46.1 µg/mL. For the same compound, the Tmax ([3]; 150 mg/animal, Female, Study Day 1, read-out: Synovia Tmax) was 204 h, the AUC(0-t) ([3]; 150 mg/animal, Male, Study Day 1) was 12500 µg·h/mL and the Cmax ([3]; 150 mg/animal, Male, Study Day 1, read-out: Synovia Cmax) was 63.2 µg/mL. For the same compound, the Tmax ([3]; 150 mg/animal, Male, Study Day 1, read-out: Synovia Tmax) was 120 h, the concentration at 4 weeks ([3]; both sexes, 75 mg/animal, intra-articular, 75 mg) was 1 µM and the concentration at 4 weeks ([3]; both sexes, 150 mg/animal, intra-articular, 150 mg) was 13 µM. For the same compound, the Tmax ([3]; both sexes, intra-articular, calculated, read-out: Tmax, synovial fluid (converted)) was about 120 h, the Cmax ([3]; both sexes, intra-articular, highest dose (150 mg), read-out: Cmax, synovial fluid) was 50 µg/mL and the “mean histopathological score, treated left hind paw” value ([4]; 1 mg/kg IA (Group 3), Mean±SEM) was 2.14±0.55 a.u. The “Histology: Score, MEAN” value [4, 5] was 2.14, the “Histology: Bones” value [4, 5] was 3.5 and 2 and 0 (3×) and 3 and 4 and the “Histology: Cartilage” value [4, 5] was 3.5 and 2 and 0 (3×) and 3 and 4. For the same compound, the “Histology: Joint space” value [4, 5] was 4 (4×) and 0 (3×), the “Histology: Score” value [4, 5] was 3.5 (3×) and 2.5 and 1 (2×) and 0 and the “Histology: Soft tissue” value [4, 5] was 3 (2×) and 2.5 (2×) and 1 (2×) and 0. For the same compound, the “Histology: Score, MEAN” value [4, 6] was 3.57, the “Histology: Bones” value [4, 6] was 4 (5×) and 0 and 3.5 and the “Histology: Cartilage” value [4, 6] was 4 (6×) and 0. For the same compound, the “Histology: Joint space” value [4, 6] was 4 (6×) and 0, the “Histology: Score” value [4, 6] was 4 (6×) and 1 and the “Histology: Soft tissue” value [4, 6] was 4 (3×) and 1 and 3.5 (2×) and 3. For the same compound, the “histopathology findings, treated paws” value ([4]; 1 mg/kg IA (Group 3L), 3/7 cases) was “moderate to severe lesions with destruction of cartilage and bone”, the “mean histopathological score, contralateral right hind paw” value [4, 7] was 4.00±0.00 a.u and the “mean histopathological score, treated left hind paw” value [4, 7] was 0.33±0.21 a.u. The “Histology: Score, MEAN” value ([4]; 10 mg/kg IA (Group 2), L paw (injected), **p < 0.01 vs Vehicle Group, ##p < 0.01 vs contralateral (Right) paw) was 0.33**##, the “Histology: Bones” value [4, 8] was 0 and the “Histology: Cartilage” value [4, 8] was 0. For the same compound, the “Histology: Joint space” value [4, 8] was 0, the “Histology: Score” value [4, 8] was 0 (4×) and 1 (2×) and the “Histology: Soft tissue” value [4, 8] was 0 (4×) and 1 (2×). For the same compound, the “Histology: Score, MEAN” value [4, 9] was 4.00, the “Histology: Bones” value [4, 9] was 4 and the “Histology: Cartilage” value [4, 9] was 4. For the same compound, the “Histology: Joint space” value [4, 9] was 4, the “Histology: Score” value [4, 9] was 4 and the “Histology: Soft tissue” value [4, 9] was 4 (4×) and 3.5 (2×). For the same compound, the “histopathology findings, treated paws” value ([4]; 10 mg/kg IA (group 2L)) was 4/6 were WNL.

With `C[C@@H]1C[C@H]2[C@@H]3CCC4=CC(=O)C=C[C@]4(C)[C@@]3(F)[C@@H](O)C[C@]2(C)[C@@]1(O)C(=O)CO` [dexamethasone, Dexamethasone, reference compound] the “Histology: Score, MEAN” value [4, 10] was 2.93, the “Histology: Bones” value [4, 10] was 4 (2×) and 0 and 3 (3×) and 2.5 and the “Histology: Cartilage” value [4, 10] was 4 (2×) and 0 and 3 (2×) and 2.5 (2×). For the same compound, the “Histology: Joint space” value [4, 10] was 4 (6×) and 0, the “Histology: Score” value [4, 10] was 4 (2×) and 1 and 3 (3×) and 2.5 and the “Histology: Soft tissue” value [4, 10] was 4 (2×) and 1.5 and 2 (2×) and 3 and 2.5. The “Histology: Score, MEAN” value [4, 11] was 2.29, the “Histology: Bones” value [4, 11] was 0 (3×) and 4 (4×) and the “Histology: Cartilage” value [4, 11] was 0 (3×) and 4 (4×). For the same compound, the “Histology: Joint space” value [4, 11] was 0 (3×) and 4 (4×), the “Histology: Score” value [4, 11] was 0 (3×) and 4 (4×) and the “Histology: Soft tissue” value [4, 11] was 0 (3×) and 4 (4×).
